Patent US20090226527A1, “Particulate-stabilized injectable pharmacutical compositions of posaconazole” (priority 2004, published 2009)
Converted amounts (≈) assume the structure as drawn.

Test system: infectious agents (strains tested)
Assay: organism not typed
Assay type: cell-based

Question: `CCC(C)n1ncn(-c2ccc(N3CCN(c4ccc(OCC5COC(Cn6cncn6)(c6ccc(Cl)cc6Cl)O5)cc4)CC3)cc2)c1=O` (centres unmarked) [Itraconazole] was tested. Which MIC (Absidia spp, read-out: Geometric Mean MIC) did it give?
Answer: 0.229 mg/L (≈ 0.325 µM)

Question: And the MIC (Absidia spp, read-out: MIC[90])?
Answer: 0.063 to 2 mg/L (≈ 0.0893 to 2.83 µM)

Question: And the MIC (Alternaria spp, read-out: Geometric Mean MIC)?
Answer: 0.326 mg/L (≈ 0.462 µM)

Question: And the MIC (Alternaria spp, read-out: MIC[90])?
Answer: 1 mg/L (≈ 1.42 µM)

Question: What about the MIC (Apophysomyces spp, read-out: Geometric Mean MIC) of the same molecule?
Answer: 0.707 mg/L (≈ 1 µM)

Question: And the MIC (Apophysomyces spp, read-out: MIC[90])?
Answer: 0.031 to 8 mg/L (≈ 0.0439 to 11.3 µM)

Question: And the MIC (Arthroderma terrestre, Trichophyton terrestre, read-out: Geometric Mean MIC)?
Answer: 0.25 mg/L (≈ 0.354 µM)

Question: And the MIC (Arthroderma terrestre, Trichophyton terrestre, read-out: MIC[90])?
Answer: 0.25 mg/L (≈ 0.354 µM)

Question: And the MIC (Aspergillus flavus, read-out: Geometric Mean MIC)?
Answer: 0.213 mg/L (≈ 0.302 µM)

Question: What about the MIC (Aspergillus flavus, read-out: MIC[90]) of the same molecule?
Answer: 1 mg/L (≈ 1.42 µM)

Question: And the MIC (Aspergillus fumigatus, read-out: Geometric Mean MIC)?
Answer: 0.397 mg/L (≈ 0.563 µM)

Question: What about the MIC (Aspergillus fumigatus, read-out: MIC[90]) of the same molecule?
Answer: 1 mg/L (≈ 1.42 µM)

Question: What about the MIC (Aspergillus nidulans, read-out: Geometric Mean MIC) of the same molecule?
Answer: 0.186 mg/L (≈ 0.264 µM)

Question: And the MIC (Aspergillus nidulans, read-out: MIC[90])?
Answer: 0.5 mg/L (≈ 0.709 µM)

Question: What about the MIC (Aspergillus niger, read-out: Geometric Mean MIC) of the same molecule?
Answer: 0.834 mg/L (≈ 1.18 µM)

Question: What about the MIC (Aspergillus niger, read-out: MIC[90]) of the same molecule?
Answer: 2 mg/L (≈ 2.83 µM)

Question: What about the MIC (Aspergillus sydowii, read-out: Geometric Mean MIC) of the same molecule?
Answer: 0.5 mg/L (≈ 0.709 µM)

Question: And the MIC (Aspergillus sydowii, read-out: MIC[90])?
Answer: 0.125 to 2 mg/L (≈ 0.177 to 2.83 µM)

Question: And the MIC (Aspergillus terreus, read-out: Geometric Mean MIC)?
Answer: 0.229 mg/L (≈ 0.325 µM)

Question: And the MIC (Aspergillus terreus, read-out: MIC[90])?
Answer: 0.5 mg/L (≈ 0.709 µM)

Question: And the MIC (Aspergillus ustus, read-out: Geometric Mean MIC)?
Answer: 0.906 mg/L (≈ 1.28 µM)

Question: And the MIC (Aspergillus ustus, read-out: MIC[90])?
Answer: 0.125 to 2 mg/L (≈ 0.177 to 2.83 µM)

Question: And the MIC (Bipolaris spp, read-out: Geometric Mean MIC)?
Answer: 0.25 mg/L (≈ 0.354 µM)

Question: What about the MIC (Bipolaris spp, read-out: MIC[90]) of the same molecule?
Answer: 0.25 mg/L (≈ 0.354 µM)

Question: And the MIC (Bjerkandera adusta, read-out: Geometric Mean MIC)?
Answer: 0.057 mg/L (≈ 0.0808 µM)

Question: And the MIC (Bjerkandera adusta, read-out: MIC[90])?
Answer: 0.063 mg/L (≈ 0.0893 µM)

Question: And the MIC (Blastomyces dermatitidis, read-out: Geometric Mean MIC)?
Answer: 0.045 mg/L (≈ 0.0638 µM)

Question: And the MIC (Blastomyces dermatitidis, read-out: MIC[90])?
Answer: 2 mg/L (≈ 2.83 µM)

Question: And the MIC (Candida albicans, read-out: Geometric Mean MIC)?
Answer: 0.064 mg/L (≈ 0.0907 µM)

Question: And the MIC (Candida albicans, read-out: MIC[90])?
Answer: 0.25 mg/L (≈ 0.354 µM)

Question: What about the MIC (Candida dubliniensis, read-out: Geometric Mean MIC) of the same molecule?
Answer: 0.107 mg/L (≈ 0.152 µM)

Question: What about the MIC (Candida dubliniensis, read-out: MIC[90]) of the same molecule?
Answer: 0.5 mg/L (≈ 0.709 µM)

Question: And the MIC (Candida tropicalis, read-out: Geometric Mean MIC)?
Answer: 0.167 mg/L (≈ 0.237 µM)

Question: And the MIC (Candida tropicalis, read-out: MIC[90])?
Answer: 0.5 mg/L (≈ 0.709 µM)

Question: And the MIC (Clavispora lusitaniae, Candida lusitaniae, read-out: Geometric Mean MIC)?
Answer: 0.216 mg/L (≈ 0.306 µM)

Question: What about the MIC (Clavispora lusitaniae, Candida lusitaniae, read-out: MIC[90]) of the same molecule?
Answer: 1 mg/L (≈ 1.42 µM)

Question: What about the MIC (Coccidioides immitis, read-out: Geometric Mean MIC, Coccidioides immitis) of the same molecule?
Answer: 0.198 mg/L (≈ 0.281 µM)

Question: What about the MIC (Coccidioides immitis, read-out: MIC[90], Coccidioides immitis) of the same molecule?
Answer: 0.25 mg/L (≈ 0.354 µM)

Question: And the MIC (Cryptococcus neoformans, read-out: Geometric Mean MIC)?
Answer: 0.444 mg/L (≈ 0.629 µM)

Question: And the MIC (Cryptococcus neoformans, read-out: MIC[90])?
Answer: 4 mg/L (≈ 5.67 µM)

Question: And the MIC (Curvularia spp, read-out: Geometric Mean MIC)?
Answer: 0.5 mg/L (≈ 0.709 µM)

Question: And the MIC (Curvularia spp, read-out: MIC[90])?
Answer: 0.5 mg/L (≈ 0.709 µM)

Question: And the MIC (Debaryomyces hansenii, Candida famata, read-out: Geometric Mean MIC)?
Answer: 0.348 mg/L (≈ 0.493 µM)

Question: And the MIC (Debaryomyces hansenii, Candida famata, read-out: MIC[90])?
Answer: 1 mg/L (≈ 1.42 µM)

Question: And the MIC (Diutina rugosa, Candida rugosa, read-out: Geometric Mean MIC)?
Answer: 0.196 mg/L (≈ 0.278 µM)

Question: And the MIC (Diutina rugosa, Candida rugosa, read-out: MIC[90])?
Answer: 4 mg/L (≈ 5.67 µM)

Question: What about the MIC (Dujonia zeylanoides, Candida zeylanoides, read-out: Geometric Mean MIC) of the same molecule?
Answer: 0.105 mg/L (≈ 0.149 µM)

Question: And the MIC (Dujonia zeylanoides, Candida zeylanoides, read-out: MIC[90])?
Answer: 0.031 to 0.5 mg/L (≈ 0.0439 to 0.709 µM)

Question: What about the MIC (Epidermophyton floccosum, read-out: Geometric Mean MIC) of the same molecule?
Answer: 0.088 mg/L (≈ 0.125 µM)

Question: What about the MIC (Epidermophyton floccosum, read-out: MIC[90]) of the same molecule?
Answer: 32 mg/L (≈ 45.3 µM)

Question: And the MIC (Exophiala dermatidis, read-out: Geometric Mean MIC)?
Answer: 1 mg/L (≈ 1.42 µM)

Question: What about the MIC (Exophiala dermatidis, read-out: MIC[90]) of the same molecule?
Answer: 1 mg/L (≈ 1.42 µM)

Question: And the MIC (Exophiala dermatitidis, Wangiella dermatitidis, read-out: Geometric Mean MIC)?
Answer: 0.5 mg/L (≈ 0.709 µM)

Question: What about the MIC (Exophiala dermatitidis, Wangiella dermatitidis, read-out: MIC[90]) of the same molecule?
Answer: 0.063 to 1 mg/L (≈ 0.0893 to 1.42 µM)

Question: What about the MIC (Exophiala jeanselmei, read-out: Geometric Mean MIC) of the same molecule?
Answer: 0.467 mg/L (≈ 0.662 µM)

Question: And the MIC (Exophiala jeanselmei, read-out: MIC[90])?
Answer: 1 mg/L (≈ 1.42 µM)

Question: And the MIC (Exophiala moniliae, read-out: Geometric Mean MIC)?
Answer: 0.031 mg/L (≈ 0.0439 µM)

Question: What about the MIC (Exophiala moniliae, read-out: MIC[90]) of the same molecule?
Answer: 0.031 mg/L (≈ 0.0439 µM)

Question: What about the MIC (Fonsecae pedrosoi, read-out: Geometric Mean MIC) of the same molecule?
Answer: 0.063 mg/L (≈ 0.0893 µM)

Question: What about the MIC (Fonsecae pedrosoi, read-out: MIC[90]) of the same molecule?
Answer: 0.008 to 0.5 mg/L (≈ 0.0113 to 0.709 µM)

Question: And the MIC (Fusarium spp, read-out: Geometric Mean MIC)?
Answer: 13.3 mg/L (≈ 18.8 µM)

Question: And the MIC (Fusarium spp, read-out: MIC[90])?
Answer: 16 mg/L (≈ 22.7 µM)
